According to publication PMC6753678, “Fueling Open Innovation for Malaria Transmission-Blocking Drugs: Hundreds of Molecules Targeting Early Parasite Mosquito Stages” (Frontiers in Microbiology, 2019):
Like-named read-outs stand apart in the source and are kept apart here.

Columns and labels:
[1] = system: 3D7-strain P. falciparum asexual parasites; test: P. falciparum asexual growth inhibition assay (Pf GIA); type: cell-based, Plasmodium falciparum; details: dose response confirmation; read-out: Pf asexual growth inhibition assays IC50
Method: The asexual activity of active compounds was tested in dose response with parasite lactate dehydrogenase (LDH) activity used as a readout of parasite viability as described in [Gamo et al. (2010)]. Briefly, 3D7-strain P. falciparum asexual parasites were diluted to 0.25% parasitemia, 2% hematocrit in culture medium composed of RPMI medium with 25 mM HEPES, 2% D-sucrose, 0.3% L-glutamine, 150 μM hypoxanthine plus 5% albumax. 25 μl of parasite inoculum was then dispensed into each well of a 384 well plate containing test compounds and positive (50 μM chloroquine) and negative (DMSO) controls. Plates were incubated for 72 h at 37°C in a 5% CO2, 5%O2, 90% N2 environment before being frozen at −70°C. Plates were then thawed and 70 μl of reaction mix (143 mM sodium L-lactate, 143 mM 3-acetyl pyridine adenine dinucleotide, […] Nitro Blue tetrazolium chloride, […] diaphorase (2.83 U/ml), 0.7% Tween 20, 100 mM Tris–HCl pH 8.0) was added to each well using a Multidrop Combi automated dispenser. Plates were shaken to mix and then absorbance at 650 nm was measured after 10 min incubation at room temperature. Percent inhibition of asexual growth was then calculated with respect to positive and negative controls. Data presented is the mean of three independent biological replicates.

[2] = system: P. berghei ookinete development; details: for % inhibition, Replicate A / % inhibition, Replicate B: primary screen at 1 μM
HepG2 cells = test: HepG2 cytotoxicity assay; details: for IC50: read-out: HepG2 cytotoxicity assay IC50, dose response confirmation; for Unified cytotox: unified HepG2 value across the three screens; for Pb ODA (this manuscript) HepG2 cytoxicity: HepG2 cytotoxicity listed with the Pb ODA data set (this manuscript)
Method: Briefly, HepG2 cells were seeded onto compound-treated 384 well plates at a density of 2,500 cells per well in Minimal Essential Medium (MEM) plus 10% fetal bovine serum and 1% non-essential amino acids solution (NEAA). Cells were incubated with test compounds or 50 μM doxorubicin (positive) and DSMO (negative) controls at 37°C for 48 h in a humidified 5% CO2 atmosphere. […] Cell viability was then measured in a fluorescent plate reader and percent inhibition calculated with respect to positive and negative controls.

[3] = read-out: Pb ODA IC50, this manuscript
[4] = read-out: Pb Ookinete development assay IC50, dose response confirmation
[5] = read-out: Pb ODA (this manuscript) IC50, P. berghei ookinete development assay, this manuscript

O=c1c2ccccc2[nH]c2cc(Cl)ccc12 [TCMDC-123989]
IC50 [1]: 1280 nM | Is compound selective in assay? Pb ODA active? ([2]; 1: YES, 0: NO): 1 (1: YES) | % inhibition, Replicate A [2]: 43.19% | % inhibition, Replicate B [2]: 69.34% | IC50 [2, 3]: 1180 nM | IC50 [2, 4]: 1180 nM | IC50 (HepG2 cells): 50.7 µM | Unified cytotox (HepG2 cells): 50.70 µM

CC(Cl)=CCc1c(C)[nH]c2c(ccc3ccccc32)c1=O [TCMDC-124085]
IC50 [1]: 276 nM | Is compound selective in assay? Pb ODA active? [2]: 1 (key: 1: YES; 0: NO) | % inhibition, Replicate A [2]: 85.49% | % inhibition, Replicate B [2]: 96.24% | IC50 [2, 5]: 330 nM | IC50 [2, 4]: 328 nM | Pb ODA (this manuscript) HepG2 cytoxicity (HepG2 cells): 100.00 µM | IC50 (HepG2 cells): 100 µM

CCOC(=O)C(=O)N1c2ccc(OCC)cc2-c2c(ssc2=S)C1(C)C [TCMDC-124090]
IC50 [1]: 89 nM | Is compound selective in assay? Pb ODA active? ([2]; 1: YES, 0: NO): 1 (1: YES) | % inhibition, Replicate A [2]: 23.50% | % inhibition, Replicate B [2]: 54.71% | IC50 [2, 3]: 2010 nM | IC50 [2, 4]: 2010 nM | IC50 (HepG2 cells): 100 µM | Unified cytotox (HepG2 cells): 100.00 µM

CC(C)c1nc(N2CCN(C(=S)NCc3ccccc3)CC2)c(C#N)c2c1COC(C)(C)C2 [TCMDC-124093]
IC50 [1]: 55 nM | Is compound selective in assay? Pb ODA active? ([2]; 1: YES, 0: NO): 0 (0: NO) | % inhibition, Replicate A [2]: 50.94% | % inhibition, Replicate B [2]: 54.99% | IC50 [2, 4]: 760 nM | IC50 (HepG2 cells): 0.0017 µM | Unified cytotox (HepG2 cells): 0.0017 µM

Cc1cc(C)cc(-n2c(C)cc(/C=C3\SC(=Nc4ccc(Cl)cc4)NC3=O)c2C)c1 [TCMDC-124103]
IC50 [1]: 32 nM | Is compound selective in assay? Pb ODA active? ([2]; 1: YES, 0: NO): 1 (1: YES) | % inhibition, Replicate A [2]: 110.51% | % inhibition, Replicate B [2]: 94.72% | IC50 [2, 3]: 560 nM | IC50 [2, 4]: 561 nM | IC50 (HepG2 cells): 100 µM | Unified cytotox (HepG2 cells): 100.00 µM

CCOC(=O)c1c(CN2CCCC2)n(-c2ccccc2)c2cc(Br)c(O)cc12 [TCMDC-124122]
IC50 [1]: 658 nM | Is compound selective in assay? Pb ODA active? ([2]; 1: YES, 0: NO): 0 (0: NO) | % inhibition, Replicate A [2]: 64.42% | % inhibition, Replicate B [2]: 39.97% | IC50 [2, 3]: 7760 nM | IC50 [2, 4]: 7760 nM | IC50 (HepG2 cells): 71.6 µM | Unified cytotox (HepG2 cells): 71.61 µM

Cc1ccc(Nc2nc(N/N=C/c3cccc(O)c3)nc(Nc3ccc([N+](=O)[O-])cc3)n2)cc1C [TCMDC-124125]
IC50 [1]: 1820 nM | Is compound selective in assay? Pb ODA active? ([2]; 1: YES, 0: NO): 1 (1: YES) | % inhibition, Replicate A [2]: 68.98% | % inhibition, Replicate B [2]: 54.76% | IC50 [2, 3]: 3830 nM | IC50 [2, 4]: 3830 nM | IC50 (HepG2 cells): 100 µM | Unified cytotox (HepG2 cells): 100.00 µM

COc1ccc2nc3cc(Cl)ccc3c(NCCCO)c2c1 [TCMDC-124144]
IC50 [1]: 210 nM | Is compound selective in assay? Pb ODA active? [2]: 0 (key: 1: YES; 0: NO) | % inhibition, Replicate A [2]: 19.58% | % inhibition, Replicate B [2]: 67.10% | IC50 [2, 4]: 1300 nM | Pb ODA (this manuscript) HepG2 cytoxicity (HepG2 cells): 7.08 µM | IC50 (HepG2 cells): 7.08 µM

CC(C)CN1CCN(c2nc(C#N)c3c(c2C(=S)NC2CCCCC2)CC(C)(C)OC3)CC1 [TCMDC-124173]
IC50 [1]: 415 nM | Is compound selective in assay? Pb ODA active? ([2]; 1: YES, 0: NO): 1 (1: YES) | % inhibition, Replicate A [2]: 37.56% | % inhibition, Replicate B [2]: 54.94% | IC50 [2, 3]: 4890 nM | IC50 [2, 4]: 4890 nM | IC50 (HepG2 cells): 100 µM | Unified cytotox (HepG2 cells): 100.00 µM

COc1ccc(C=NNc2nc(O)cc(-c3ccccc3)n2)cc1OC [TCMDC-124217]
IC50 [1]: 630 nM | Is compound selective in assay? Pb ODA active? ([2]; 1: YES, 0: NO): 1 (1: YES) | % inhibition, Replicate A [2]: 58.99% | % inhibition, Replicate B [2]: 66.09% | IC50 [2, 3]: 500 nM | IC50 [2, 4]: 497 nM | IC50 (HepG2 cells): 58.2 µM | Unified cytotox (HepG2 cells): 58.21 µM

COc1cc(OC)nc(C(Sc2ccc(NC(=O)c3cccs3)cc2)c2ccccc2)n1 (stereo not drawn) [TCMDC-124257]
IC50 [1]: 184 nM | Is compound selective in assay? Pb ODA active? ([2]; 1: YES, 0: NO): 1 (1: YES) | % inhibition, Replicate A [2]: 29.98% | % inhibition, Replicate B [2]: 55.99% | IC50 [2, 3]: 970 nM | IC50 [2, 4]: 973 nM | IC50 (HepG2 cells): 100 µM | Unified cytotox (HepG2 cells): 100.00 µM

COc1ccc2nc3cc(Cl)ccc3c(NCCO)c2c1.Cl [TCMDC-124272]
IC50 [1]: 404 nM | Is compound selective in assay? Pb ODA active? [2]: 1 (key: 1: YES; 0: NO) | % inhibition, Replicate A [2]: 66.85% | % inhibition, Replicate B [2]: 79.62% | IC50 [2, 5]: 840 nM | IC50 [2, 4]: 843 nM | Pb ODA (this manuscript) HepG2 cytoxicity (HepG2 cells): 15.67 µM | IC50 (HepG2 cells): 15.7 µM

Cc1ccc2[nH]c(C)c(Br)c(=O)c2c1 [TCMDC-124347]
IC50 [1]: 3820 nM | Is compound selective in assay? Pb ODA active? ([2]; 1: YES, 0: NO): 1 (1: YES) | % inhibition, Replicate A [2]: 68.86% | % inhibition, Replicate B [2]: 49.90% | IC50 [2, 3]: 2450 nM | IC50 [2, 4]: 2450 nM | IC50 (HepG2 cells): 100 µM | Unified cytotox (HepG2 cells): 100.00 µM

CC(=O)Nc1ccc(Nc2c3ccccc3nc3ccccc23)cc1 [TCMDC-124356]
IC50 [1]: 1090 nM | Is compound selective in assay? Pb ODA active? ([2]; 1: YES, 0: NO): 1 (1: YES) | % inhibition, Replicate A [2]: 62.81% | % inhibition, Replicate B [2]: 63.52% | IC50 [2, 3]: 600 nM | IC50 [2, 4]: 598 nM | IC50 (HepG2 cells): 14.1 µM | Unified cytotox (HepG2 cells): 14.13 µM

CCn1c(C)cc(C=C2SC(=Nc3ccccc3)NC2=O)c1C [TCMDC-124456]
IC50 [1]: 1700 nM | Is compound selective in assay? Pb ODA active? ([2]; 1: YES, 0: NO): 1 (1: YES) | % inhibition, Replicate A [2]: 41.94% | % inhibition, Replicate B [2]: 67.52% | IC50 [2, 3]: 1010 nM | IC50 [2, 4]: 1000 nM | IC50 (HepG2 cells): 97.3 µM | Unified cytotox (HepG2 cells): 97.27 µM

COc1ccc(C=C2SC(=N)N(c3ccccc3OC)C2=O)cc1 [TCMDC-124486]
IC50 [1]: 343 nM | Is compound selective in assay? Pb ODA active? ([2]; 1: YES, 0: NO): 1 (1: YES) | % inhibition, Replicate A [2]: 113.35% | % inhibition, Replicate B [2]: 91.87% | IC50 [2, 3]: 680 nM | IC50 [2, 4]: 682 nM | IC50 (HepG2 cells): 24.6 µM | Unified cytotox (HepG2 cells): 24.55 µM
